Measured values taken from US8921307B2, “Synthetic linear apelin mimetics for the treatment of heart failure” (priority 2012, dated 2014).
pEC50: −log10 of the molar value. Where a SMILES comes first, the peptide text is derived from it. [ ]: non-standard residue; d: D form. 2Nal = N[C@@H](Cc1ccc2ccccc2c1)C(=O)O; dTic = O=C(O)[C@H]1Cc2ccccc2CN1; pGlu = O=C1CC[C@@H](C(=O)O)N1; dNle = CCCC[C@@H](N)C(=O)O

Tests used:
hAPJ = molecular target: T1, hAPJ (Homo sapiens, UniProt P35414); experiment: hAPJ Calcium Flux Assay; type: cell-based; conditions: Chem-5 APJ stable cells, FLIPR calcium flux stimulation; read-out: hAPJ Ca^2+ Flux EC50
T1 sequence (P35414 1-380): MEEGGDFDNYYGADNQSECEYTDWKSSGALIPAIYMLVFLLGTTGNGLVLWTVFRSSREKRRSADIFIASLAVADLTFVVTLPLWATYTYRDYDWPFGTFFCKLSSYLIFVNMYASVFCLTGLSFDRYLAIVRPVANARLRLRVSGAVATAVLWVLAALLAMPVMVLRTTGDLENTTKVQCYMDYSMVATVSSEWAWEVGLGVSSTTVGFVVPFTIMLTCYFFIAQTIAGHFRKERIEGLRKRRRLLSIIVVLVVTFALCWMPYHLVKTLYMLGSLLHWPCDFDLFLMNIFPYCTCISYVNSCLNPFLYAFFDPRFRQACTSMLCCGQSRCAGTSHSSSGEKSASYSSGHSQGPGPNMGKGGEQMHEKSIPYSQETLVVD
Procedure: Chem-5 APJ stable cells (Millipore # HTS068C) were plated in 384-well format with 10,000 cells/well in 25 ul growth media, then grown 24 hours in a 37° C. tissue culture incubator. One hour before the assay, 25 ul/well FLIPR Calcium 4 dye (Molecular Devices R8142) with 2.5 mM probenecid was added, and cells were incubated one hour in a 37° C. tissue culture incubator. Peptides were solubilized in HBSS, HEPES & 0.1% BSA buffer, and serially-diluted 10-fold, from 50 uM to […], in triplicate. FLIPR Tetra was used to add peptide to the cells with dye (1:5, for final peptide concentrations ranging from 10 uM to […]). FLIPR dye inside the cells emitted fluorescence after binding to calcium, while fluorescence from outside the cells was masked. Fluorescence was measured using 470-495 excitation and 515-575 emission wavelengths on the FLIPR Tetra. Readings were done for 3 minutes total, beginning 10 seconds before the peptide addition. Maximum-minimum values were calculated and plotted for each peptide concentration, and GraphPad prism software was used to calculate EC50 values at the curve inflection points, for calcium flux stimulation by peptides.

[1] = Surrogate Activity-Based Plasma Stability Assay; type: in vitro ADME; conditions: rat, Surrogate activity-based Plasma stability t½
Procedure: Stability half-life was then calculated by the formula, t½=0.693÷k Surrogate Activity-Based Plasma Stability Assay: […]
2) Calculate slope of value above and […]

CCCC[C@@H](NC(=O)[C@@H]1CCCN1C(=O)CNC(=O)[C@H](CCCCN)NC(=O)[C@@H](C)NC(=O)[C@@H](C)NC(=O)[C@H](CC(C)C)NC(=O)[C@H](CCCNC(=N)N)NC(=O)[C@@H]1CCCN1C(=O)[C@H](CCCNC(=N)N)NC(=O)[C@@H]1CCC(=O)N1)C(=O)N[C@H](C)C(=O)N[C@H](Cc1ccccc1)C(=O)O [Example 48, pE-R-P-R-L-a-a-K-G-P-nle-a-f-OH] ([pGlu]RPRL[dA][dA]KGP[dNle][dA][dF]-OH)
pEC50 (hAPJ): 7.79 | half-life [1]: 4.13 h

CCCC[C@@H](NC(=O)[C@@H]1CCCN1C(=O)CNC(=O)[C@H](CCCCN)NC(=O)[C@H](Cc1c[nH]cn1)NC(=O)[C@@H](C)NC(=O)[C@H](CC(C)C)NC(=O)[C@H](CCCNC(=N)N)NC(=O)[C@@H]1CCCN1C(=O)[C@H](CCCNC(=N)N)NC(=O)[C@@H]1CCC(=O)N1)C(=O)N[C@H](C)C(=O)N1Cc2ccccc2C[C@@H]1C(=O)O [Example 26, pE-R-P-R-L-a-H-K-G-P-nle-a-tic-OH] ([pGlu]RPRL[dA]HKGP[dNle][dA][dTic]-OH)
pEC50 (hAPJ): 8.77 | half-life [1]: 16.4 h

CCCC[C@@H](NC(=O)[C@@H]1CCCN1C(=O)CNC(=O)[C@H](CCCCN)NC(=O)[C@H](Cc1c[nH]cn1)NC(=O)[C@@H](C)NC(=O)[C@H](CC(C)C)NC(=O)[C@H](CCCNC(=N)N)NC(=O)[C@@H]1CCCN1C(=O)[C@H](CCCNC(=N)N)NC(=O)[C@@H]1CCC(=O)N1)C(=O)N[C@H](C)C(=O)N[C@H](Cc1ccc(O)cc1)C(=O)O [Example 21, pE-R-P-R-L-a-H-K-G-P-nle-a-y-OH] ([pGlu]RPRL[dA]HKGP[dNle][dA][dY]-OH)
pEC50 (hAPJ): 9.05 | half-life [1]: > 16.7 h

CCCC[C@@H](NC(=O)[C@@H]1CCCN1C(=O)CNC(=O)[C@H](CCCCN)NC(=O)[C@H](Cc1c[nH]cn1)NC(=O)[C@@H](C)NC(=O)[C@H](Cc1ccc2ccccc2c1)NC(=O)[C@H](CCCNC(=N)N)NC(=O)[C@@H]1CCCN1C(=O)[C@H](CCCNC(=N)N)NC(=O)[C@@H]1CCC(=O)N1)C(=O)N[C@H](C)C(=O)N[C@H](Cc1ccccc1)C(=O)O [Example 25, pE-R-P-R-(2-Nal)-a-H-K-G-P-nle-a-f-OH] ([pGlu]RPR[2Nal][dA]HKGP[dNle][dA][dF]-OH)
pEC50 (hAPJ): 7.16 | half-life [1]: 4.03 h

CCCC[C@@H](NC(=O)[C@@H]1CCCN1C(=O)CNC(=O)[C@H](CCCCN)NC(=O)[C@H](Cc1c[nH]cn1)NC(=O)[C@@H](C)NC(=O)[C@H](CC(C)C)NC(=O)[C@H](CCCNC(=N)N)NC(=O)[C@@H]1CCCN1C(=O)[C@H](CCCNC(=N)N)NC(=O)[C@@H]1CCC(=O)N1)C(=O)N[C@H](Cc1ccccc1)C(=O)O [Example 6, pE-R-P-R-L-a-H-K-G-P-nle-f-OH]
pEC50 (hAPJ): 8.51 | half-life [1]: > 16.7 h

CCCC[C@@H](NC(=O)[C@@H]1CCCN1C(=O)CNC(=O)[C@H](CCCCN)NC(=O)[C@H](Cc1c[nH]cn1)NC(=O)[C@H](NC(=O)[C@H](CC(C)C)NC(=O)[C@H](CCCNC(=N)N)NC(=O)[C@@H]1CCCN1C(=O)[C@H](CCCNC(=N)N)NC(=O)[C@@H]1CCC(=O)N1)C(C)C)C(=O)N[C@H](C)C(=O)N[C@H](Cc1ccccc1)C(=O)O [Example 61, pE-R-P-R-L-v-H-K-G-P-nle-a-f-OH] ([pGlu]RPRL[dV]HKGP[dNle][dA][dF]-OH)
pEC50 (hAPJ): 8.10 | half-life [1]: > 16.7 h

CCCC[C@@H](NC(=O)[C@@H]1CCCN1C(=O)CNC(=O)[C@H](CCCCN)NC(=O)[C@H](Cc1c[nH]cn1)NC(=O)[C@@H](C)NC(=O)[C@H](CC(C)C)NC(=O)[C@H](CCCNC(=N)N)NC(=O)[C@@H]1C[C@@H](c2ccccc2)CN1C(=O)[C@H](CCCNC(=N)N)NC(=O)[C@@H]1CCC(=O)N1)C(=O)N[C@H](C)C(=O)N[C@H](Cc1ccccc1)C(=O)O [Example 9, pE-R-(trans-4-PhP)-R-L-a-H-K-G-P-nle-a-f-OH]
pEC50 (hAPJ): 8.00 | half-life [1]: > 16.7 h
